Tests used:
[1] = test system: C9orf72 intron 1 harboring r(G4C2)exp; test: C9orf72 intron 1 RT-qPCR in patient-derived iPSCs; assay type: cell-based, human
Description: iPSCs were treated for 4 days in Matrigel (356234, Corning) coated plates with mTeSR™1 feeder-free medium ([…] Technologies; Catalog #85850). Cells were treated in 6-well plates on day 1 and 3 with compounds diluted in 0.1% final DMSO.
Measuring Levels of C9orf72 and C9orf72 Variants by RT-qPCR. LCLs were seeded in 6-well plate (˜10^6 cells in 2 mL of growth medium) and incubated overnight at 37° C. Cells were then treated with various concentrations of compound for 24 h or with G4C2-ASO and Control-ASO (100 nM), delivered by transfection with Lipofectamine RNAiMax. RNA was extracted as described above and the expression of C9orf72 variants was determined by RT-qPCR. For iPSC and iPSC-derived motor neuron cell line, the cells were seeded into Matrigel-coated 6-well plate to ˜60% confluence before treated with 3 μM C9orf72-ASO or Control-ASO and various concentrations of compound for 1 to 2 weeks. For compound treatment well, medium change was performed with fresh compound every 3-4 days. RNA was extracted as described above and the expression of C9orf72 variants was determined by RT-qPCR.

[2] = molecular target: r(G4C2)8 and hnRNP H1 complex; test: TR-FRET hnRNP H binding assay; assay type: biochemical; details: inhibiting r(G4C2)8 and hnRNP H1 complex formation; 7 in the absence of Rnase L
Description: TR-FRET hnRNP H Binding Assay. TR-FRET assays were performed as previously described (12). The mixture was incubated for 15 min at room temperature and then hnRNP H1-His6 was added. After an additional 15 min incubation, streptavidin-XL665 (HTRF, Cisbio Bioassays) and anti-His6-Tb (HTRF, Cisbio Bioassays) were added to a final concentration of 40 nM and 0.44 ng/μL, respectively. After incubating for 1 h, TR-FRET was measured as previously described (12).

WT C9ORF72 protein = test: C9ORF72 expression by Western blotting; assay type: cell-based, human; details: Western blot, relative to β-actin
Description: Measuring C9ORF72 Expression Level by Western Blotting. Samples analyzed by Western blot were prepared as described in “Measuring poly(GP) Levels by Electrochemiluminescence”. Approximately 20 μg of total protein was separated on a 10% SDS-polyacrylamide gel, and then transferred to a PVDF membrane. The membrane was washed with 1×TBS and then blocked in 5% milk in 1×TBST for 1 h at room temperature. After washing with 1×TBST, C9orf72 antibody (GeneTex, GTX119776; 1:3000 dilution) was added in 1×TBST containing 5% milk overnight at 4° C. […] The membrane was washed with 1×TBST, and protein expression was quantified using SuperSignal West Pico Chemiluminescent Substrate (Pierce Biotechnology) per the manufacturer's protocol.
To quantify β-actin expression, the membrane was stripped using 1× Stripping Buffer (200 mM glycine, pH 2.2 and 0.1% SDS) followed by washing in 1×TBST. […] The membrane was washed with 1×TBST and incubated with 1:10,000 anti-rabbit IgG horseradish-peroxidase secondary antibody conjugate (Cell Signaling Technology) in 1×TBST containing 5% (w/v) milk for 1 h at room temperature. β-actin protein expression was quantified using SuperSignal West Pico Chemiluminescent Substrate (Pierce Biotechnology) per the manufacturer's protocol. […].

[3] = test system: r(G4C2)66-No ATG-GFP mRNA; test: RNA levels in transfected HEK293T cells by RT-qPCR; assay type: cell-based, human
Description: Measuring RNA Levels in HEK Cells. HEK293T cells were seeded at 2×10^6 in 100 mm dish and incubated at 37° C. overnight. Cells were transfected with 2.5 μg of the (G4C2)66-No ATG-GFP plasmid with Lipofectamine 3000 (Life Technologies) per the manufacturer's protocols. After 5 h, the cells were collected and split into 24-well plate with 5×10^4 cells per well. After 2 h, the compounds were added and incubated for another 24 h.
Total RNA was extracted using a Quick-RNA Miniprep Kit (Zymo Research) per the manufacturer's protocol. Approximately 1 μg of total RNA, as determined by Nanodrop, was used for reverse transcription using qScript Kit (Quantbio) per the manufacturer's protocol. RT-qPCR was performed on a 7900HT Fast Real Time PCR System (Applied Biosystem) using Power SYBR Green Master Mix (Applied Biosystems). Expression levels of mRNAs were normalized to β-actin.
Rnase L Knockdown. HEK293T cells were seeded in growth medium in a 100 mm dish and incubated at 37° C. until ˜80% confluent. Cells were transfected with 2.5 µg (G4C2)66-No-ATG-GFP for 5 h with Lipofectamine 3000 (Life Technologies) per the manufacturer's recommended protocol. Following transfection, the cells were plated in 6-well plates and incubated at 37° C. until ˜80% confluent. Compounds were added in growth medium and incubated for 24 h. Following compound treatment, the siRNA of interest (Table 3) were transfected with RNAiMax (Life Technologies) at a final concentration of 50 nM for 24 h per the manufacturer's recommended protocol. Total RNA was extracted using a Quick-RNA Miniprep Kit (Zymo Research) per the manufacturer's protocol. Intron 1 abundance was assessed by RT-qPCR as described above.

Structure (SMILES) | C9orf72 intron 1 levels ([1]; patient-derived iPSCs) | IC50 [2] [µM] | WT C9ORF72 protein levels (WT C9ORF72 protein) | r(G4C2)66 levels ([3]; HEK293T) | reduction of r(G4C2)exp-containing intron 1 levels ([1]; 50 nM) [%] | reduction of r(G4C2)exp-containing intron 1 levels ([1]; 500 nM) [%] | reduction of r(G4C2)exp-containing mRNA ([3]; 500 nM compound) [%] | ability to reduce r(G4C2)exp levels upon knock down of Rnase L by siRNA ([3]; RNase L siRNA versus control siRNA)
Cc1c2ccncc2c(C)c2c1[nH]c1ccc(OCCOCCOCCNCCOCCOCCOc3ccc4[nH]c5c(C)c6ccncc6c(C)c5c4c3)cc12 [Compound 3] | no effect | 0.9 ± 0.1 | no effect | without affecting |  |  |  | 
CCOC(=O)C1=C(Nc2ccccc2)S/C(=C\c2ccc(OCCOCCOCCOCCNC(=O)CCC(=O)N(CCOCCOCCOc3ccc4[nH]c5c(C)c6ccncc6c(C)c5c4c3)CCOCCOCCOc3ccc4[nH]c5c(C)c6ccncc6c(C)c5c4c3)c(O)c2)C1=O [Compound 7] |  | 2.4 ± 0.1 | unchanged |  | 45±11 | 64±10 | 46±2 | ablated
